# Assay results reported in patent US10793575B2, “Oxoisoquinoline derivatives” (CARNA BIOSCIENCES, INC., priority 2016, dated 2020).
# Assays:
# [1] = target: C481S mutant BTK [BTK(C481S)] (Homo sapiens (Human), UniProt Q06187, C481S); assay: C481S Mutant BTK Inhibitory Activity Test (mobility shift assay); type: biochemical; conditions: for IC50: C481S mutant BTK, 100 μM ATP; for C481S mutation-resistance: IC50[BTK(C481S)]/IC50[BTK(WT)]
# [2] = test system: OCI-Ly10 cells; assay: Proliferation-Inhibitory Test Against Diffuse Large-Cell B-Cell Lymphoma OCI-Ly10 Strain; type: cell-based; conditions: Homo sapiens, 96 hours, alamarBlue
# Summary of the method: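 In IMDM with 20% FBS, OCI-Ly10 cells (20000 cells/well) were exposed to compound at 0.9 nM to 30000 nM (0.3% DMSO final) for 96 hours. Viability was then read with alamarBlue reagent.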
# [3] = target: dephosphorylated BTK (Homo sapiens (Human), UniProt Q06187); assay: BTK Activity Inhibition Test (mobility shift assay); type: biochemical; conditions: 200 μM ATP, read-out: Inhibitory Activity on BTK
# Summary of the method: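 Biotinylated human BTK was dephosphorylated with λ phosphatase and assayed by mobility shift, with FITC-SRCtide as substrate in 20 mM HEPES pH 7.5, 0.01% Triton X-100 and 2 mM DTT. The substrate mix held 4 μM substrate, 20 mM MgCl2 and 200 μM ATP, and the enzyme solution held 0.46 nM BTK (stock levels, not final). After 2 h at room temperature, % inhibition was derived from P/(P+S) and IC50 by log-concentration regression.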
# [4] = target: BTK (Homo sapiens (Human), UniProt Q06187); assay: Intracellular BTK Auto-Phosphorylation Activity Inhibition Test in Ramos cells; type: cell-based; conditions: test compound 0.03 μM, anti-IgM stimulation, pY223, read-out: Inhibitory Activity on BTK-phosphorization
# Method: Ramos cells (2G6.4C10, ATCC No. CRL-1923) were cultured in a T75 flask containing RPMI-1640 medium (GIBCO, # A10491-01) supplemented with 10% FBS (AusGene) and 1% penicillin-streptomycin (Nacalai Tesque, Inc.) (hereinafter referred to as growth medium) in a 5% CO2 incubator.
# The cultured Ramos cells were diluted to a cell density of 7.5×10^6 cells/mL with a serum-free RPMI-1640 (hereinafter referred to as medium) and kept at 37° C. for 45 minutes. The cell suspension was dispensed in 1 mL aliquots into 2.0 mL tubes. A 0.03 mM solution of the test substance in DMSO was diluted with the medium to make a 0.09 μM test compound solution, 500 μL of which was then added to the tubes and the incubation was conducted at 37° C. for 1 hour in the presence of the test compound at a final concentration of 0.03 μM. Thereafter, the anti-IgM antibody (Invitrogen, H15100) which had been diluted with the medium was added at a final concentration of 10 μg/mL, and the incubation was conducted at 37° C. for 10 minutes.
# To the pellets obtained by recovering the cells via centrifugation, 100 μL of a lysis buffer [RIPA Buffer(×1)(Cell Signaling Technology, Inc.) supplemented with 1% Phosphatase inhibitor Cacktail 3 (Sigma Corporation, No. P0044), 1% Phosphatase inhibitor Cacktail (Nacalai Tesque, Inc., No. 07575) and 1 mM phenylmethylsulfonyl fluoride (PMSF)] was added and stirred gently and then allowed to stand for 10 minutes. The supernatant was recovered by centrifugation (15,000 rpm, 15 minutes) and the protein level was quantified. The portion was mixed with the SDS-sample buffer, allowed to react for 5 minutes at 95° C. to denature the protein, thereby obtaining a sample solution. Each 5 μL of the sample solutions was applied to each well containing a 5 to 20% gradient acrylamide gel (Nacalai Tesque, Inc., No. 13064-04) and electrophoresis was conducted. Thereafter, iBlot gel transfer system (Life Technologies Corporation) was used to transfer the proteins in the gel onto a PVDF membrane.
# The PVDF membrane after transfer was blocked with 2% ECL prime blocking Reagent (GE Healthcare) and thereafter the reaction was conducted overnight at 4° C. using anti-BTK mouse antibody (BD transduction laboratory, No. 611116) or anti-phosphorylated BTK rabbit antibody (pY223, EPITOMICS, No. 2207-1) as a primary antibody. The unreacted primary antibody was washed with a TBST buffer (10 mM Tris-HCl (pH 7.5), 150 mM NaCl, 0.1% Tween 20) and then the reaction was conducted for 1 hour at room temperature in a TBST buffer supplemented with 2% ECL prime blocking Reagent using HRP-labeled anti-mouse IgG horse antibody (Cell Signaling Technology, No. 7076) or anti-rabbit IgG goat antibody (Cell Signaling Technology, No. 7074) as a secondary antibody. After washing the unreacted secondary antibody with the TBST buffer, Chemi-Lumi One Super (Nacalai Tesque, Inc.) was used to conduct a reaction in accordance with the attached protocol, and then the respective bands as chemiluminescences were detected with a CCD camera (GE Healthcare ImageQuant LAS 500). […] Each phosphorylated BTK band was corrected based on the total BTK.
# The intracellular BTK autophosphorylation inhibiting activity was indicated with the mark “***” when 90% or more, with the mark “**” when 70% or more and less than 90%, and with the mark “*” when 50% or more and less than 70%.
# [5] = target: wild type BTK [BTK(WT)] (Homo sapiens (Human), UniProt Q06187); assay: C481S Mutant BTK Inhibitory Activity Test, wild type BTK (mobility shift assay); type: biochemical; conditions: 120 μM ATP
# wild type BTK [BTK(WT)], sequence (Q06187 whole entry): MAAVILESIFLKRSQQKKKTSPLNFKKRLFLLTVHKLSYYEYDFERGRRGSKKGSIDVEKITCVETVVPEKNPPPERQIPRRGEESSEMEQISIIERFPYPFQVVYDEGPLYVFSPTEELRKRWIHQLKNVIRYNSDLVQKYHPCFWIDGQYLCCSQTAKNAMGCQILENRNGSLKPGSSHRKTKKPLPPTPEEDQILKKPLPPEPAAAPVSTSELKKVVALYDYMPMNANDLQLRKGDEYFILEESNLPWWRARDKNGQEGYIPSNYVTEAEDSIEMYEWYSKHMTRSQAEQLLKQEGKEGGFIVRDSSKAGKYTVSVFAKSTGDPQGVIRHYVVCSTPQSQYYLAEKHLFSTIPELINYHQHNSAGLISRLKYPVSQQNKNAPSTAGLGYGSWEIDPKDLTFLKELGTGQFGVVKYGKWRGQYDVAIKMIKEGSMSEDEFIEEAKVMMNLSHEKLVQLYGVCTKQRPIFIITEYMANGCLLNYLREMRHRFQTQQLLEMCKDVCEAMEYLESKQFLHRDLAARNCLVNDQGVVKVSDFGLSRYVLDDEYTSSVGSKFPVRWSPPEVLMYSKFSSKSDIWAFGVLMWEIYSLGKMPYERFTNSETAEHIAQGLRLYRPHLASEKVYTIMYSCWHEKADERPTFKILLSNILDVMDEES
# C481S mutant BTK [BTK(C481S)], sequence (Q06187 whole entry C481S): as the sequence (Q06187 whole entry) above, with C481S counted along it
# dephosphorylated BTK, sequence (Q06187 whole entry): as the sequence (Q06187 whole entry) above
# BTK, sequence (Q06187 whole entry): as above
IC50 [1] [nM],C481S mutation-resistance [1],IC50 [2] [nM],IC50 [3] [nM],inhibition at 0.03 µM [4] [%],IC50 [5] [nM],Structure (SMILES)
0.6,1.2,27,< 10,≥ 90,0.49,"Cn1cc(-c2cc3c(-c4cccc(-n5ccc6cc(C7CC7)cc(F)c6c5=O)c4CO)nc(N)nc3[nH]2)cn1 [Example 13, 2-{3-[2-amino-6-(1-methyl-1H-pyrazol-4-yl)-7H-pyrrolo[2,3-d]pyrimidin-4-yl]-2-(hydroxymethyl)phenyl}-6-cyclopropyl-8-fluoroisoquinolin-1(2H)-one]"
0.99,2.2,20,< 10,≥ 90,0.46,"Nc1nc(-c2cccc(-n3ccc4cc(C5CC5)cc(F)c4c3=O)c2CO)c2cc(C3=CCN(C4COC4)CC3)[nH]c2n1 [Example 23, 2-(3-{2-amino-6-[1-(oxetan-3-yl)-1,2,3,6-tetrahydropyridin-4-yl]-7H-pyrrolo[2,3-d]pyrimidin-4-yl}-2-(hydroxymethyl)phenyl)-6-cyclopropyl-8-fluoroisoquinolin-1(2H)-one]"
